In ChEMBL document CHEMBL1201862, “PubChem BioAssay data set” (2004):
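Values below derive from 48-hour exposures of cells grown in 96-well plates, with endpoints linearly interpolated between the two concentrations bracketing the appropriate inhibition level. The concentration for 50% growth inhibition is given as GI50.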 Active and inactive are the calls of the source. Rule as the data show it: active = GI50 up to about 1.1 µM and inactive = higher.

Columns and labels:
Assay in all cases: inhibition of tumour cell growth, NCI panel, 48 h
[1] = tested on: COLO 205
[2] = tested on: DU-145
[3] = tested on: HL-60
[4] = tested on: KM12
[5] = tested on: M14
[6] = tested on: MCF7
[7] = tested on: MDA-MB-231
[8] = tested on: NCI-H522
[9] = tested on: NCI/ADR-RES
[10] = tested on: OVCAR-8
[11] = tested on: PC-3
[12] = tested on: SN12C
[13] = tested on: T47D
[14] = tested on: DLD-1
[15] = tested on: DMS-273
[16] = tested on: HOP-18
[17] = tested on: KM-20L2
[18] = tested on: M19-MEL
[19] = tested on: XF498
[20] = tested on: DMS-114

Structure (SMILES)	GI50 [1]	GI50 [2]	GI50 [3]	GI50 [4]	GI50 [5]	GI50 [6]	GI50 [7]	GI50 [8]	GI50 [9]	GI50 [10]	GI50 [11]	GI50 [12]	GI50 [13]	GI50 [14]	GI50 [15]	GI50 [16]	GI50 [17]	GI50 [18]	GI50 [19]	GI50 [20]
CC1=Nc2nc(Cl)cn2C(=O)C1(Cl)Cl	> 10 µM (inactive)	> 10 µM (inactive)	> 10 µM (inactive)	> 10 µM (inactive)	> 10 µM (inactive)	> 10 µM (inactive)	> 10 µM (inactive)	> 10 µM (inactive)	> 10 µM (inactive)	> 10 µM (inactive)	> 10 µM (inactive)	> 10 µM (inactive)	> 10 µM (inactive)	–	–	–	–	–	–	–
C/C(N)=N/OCc1nc(C)no1	> 100 µM (inactive)	> 100 µM (inactive)	> 100 µM (inactive)	> 100 µM (inactive)	> 100 µM (inactive)	> 100 µM (inactive)	> 100 µM (inactive)	> 100 µM (inactive)	> 100 µM (inactive)	> 100 µM (inactive)	> 100 µM (inactive)	> 100 µM (inactive)	> 100 µM (inactive)	–	–	–	–	–	–	–
COc1ccc([C@@H]2ON(C)[C@H]3CN(C)C(=O)[C@@H]23)cc1	> 100 µM (inactive)	> 100 µM (inactive)	> 100 µM (inactive)	–	> 100 µM (inactive)	> 100 µM (inactive)	> 100 µM (inactive)	> 100 µM (inactive)	> 100 µM (inactive)	> 100 µM (inactive)	> 100 µM (inactive)	> 100 µM (inactive)	> 100 µM (inactive)	–	–	–	–	–	–	–
CC12CCC(C(=O)OC1=O)C(C)(C)O2 (stereo not given)	> 100 µM (inactive)	> 100 µM (inactive)	–	> 100 µM (inactive)	> 100 µM (inactive)	> 100 µM (inactive)	–	> 100 µM (inactive)	> 100 µM (inactive)	> 100 µM (inactive)	> 100 µM (inactive)	> 100 µM (inactive)	> 100 µM (inactive)	–	–	–	–	–	–	–
CC1CC2C3CCC4=CC(=O)C=CC4(C)C3(F)C(O)CC2(C)C1(O)C(=O)COP(=O)(O)O (stereo not given)	> 100 µM (inactive)	> 100 µM (inactive)	> 100 µM (inactive)	> 100 µM (inactive)	> 100 µM (inactive)	> 100 µM (inactive)	> 100 µM (inactive)	> 100 µM (inactive)	–	> 100 µM (inactive)	> 100 µM (inactive)	–	> 100 µM (inactive)	> 100 µM (inactive)	> 100 µM (inactive)	> 100 µM (inactive)	> 100 µM (inactive)	> 100 µM (inactive)	> 100 µM (inactive)	–
CC1[C@@]2(O[C@@H]3C=C4C5CCC6Cc7nc8c(nc7C[C@@]6(C)C5C[C@H](O)[C@@]4(C)[C@]13O)CC1CCc3c(cc4c5c3C(O)C[C@H]5[C@@H](C)C3(O4)OC(C)(C)CC3O)[C@]1(C)C8)O[C@@](C)(CO)C[C@@H]2O (stereo not given in full)	0.57 µM (active)	–	0.191 µM (active)	1.29 µM (inactive)	–	0.21 µM (active)	–	0.745 µM (active)	–	3.24 µM (inactive)	–	2.3 µM (inactive)	–	1.79 µM (inactive)	0.0504 µM (active)	1.92 µM (inactive)	0.37 µM (active)	2.28 µM (inactive)	0.0162 µM (active)	0.119 µM (active)
Oc1[nH]c(Nc2cccc(Br)c2)nc2ncnc1-2	> 100 µM (inactive)	73.3 µM (inactive)	11.6 µM (inactive)	> 100 µM (inactive)	> 100 µM (inactive)	> 100 µM (inactive)	55.6 µM (inactive)	> 100 µM (inactive)	> 100 µM (inactive)	> 100 µM (inactive)	98.2 µM (inactive)	–	98.4 µM (inactive)	–	–	–	–	–	–	–
Nc1ccn(C2OC(CO)C(O)C2O)c(=O)c1 (stereo not given)	164 µM (inactive)	–	239 µM (inactive)	> 625 µM (inactive)	–	188 µM (inactive)	–	> 625 µM (inactive)	180 µM (inactive)	137 µM (inactive)	–	108 µM (inactive)	–	513 µM (inactive)	165 µM (inactive)	295 µM (inactive)	566 µM (inactive)	–	< 0.0625 µM (active)	–
